Consider eight compounds from patent US20230265116A1, “DEGRADATION OF (EGFR) BY CONJUGATION OF EGFR INHIBITORS WITH E3 LIGASE LIGAND AND METHODS OF USE” (BEIGENE, LTD., priority 2020, published 2023).

Holding throughout (type): cell-based
In experiment [1] the target is T1, EGFR L858R/T790M/C797S (BaF3-LTC cells) (Homo sapiens, UniProt P00533, C797S/L858R/T790M).
T1 construct: expressed in transfected cells; host or cells: BaF3
Nature of the experiment: EGFR degradation HTRF assay, BaF3-LTC cells. Particulars: BaF3-LTC cells; for DC50: EGFR degradation, IC50 (DC50) from curve fit, read-out: DC50(nM) BaF3-LTC; for Dmax: read-out: Dmax (%) BaF3-LTC. In outline: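 EGFR remaining after a 16 h, 37 °C exposure (8 doses, 5-fold steps from 10 uM final, 0.2% DMSO) was quantified by HTRF antibodies in cell lysate. Percent inhibition relative to DMSO control was fitted by four-parameter logistic to give DC50; Dmax denotes maximal degradation.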

Experiment [2] deals with T2, EGFR L858R/C797S (BaF3 LC cells) (Homo sapiens, UniProt P00533, C797S/L858R).
T2 construct: expressed in transfected cells; host or cells: BaF3
Nature of the experiment: EGFR degradation HTRF assay, BaF3 LC cells. Particulars: BaF3 LC, 16h treatment; for Dmax: maximum percentage of degradation, read-out: BaF3 LC Dmax (%); for DC50: read-out: BaF3 LC DC50. For orientation: Time-resolved FRET reads energy transfer from a long-lived donor to a nearby acceptor.

The subject of experiment [3] is EGFR Del19/C797S (H1975-clone #23). Nature of the experiment: EGFR degradation HTRF assay, H1975-clone #23 DC cells. Particulars: 16h treatment; for H1975 #23 DC Dmax (%): maximum percentage of degradation; for DC50: H1975 #23 DC, read-out: H1975 #23 DC DC50. In outline:
(§1)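 Cells were dosed on day 2 with an 8-point, 5-fold dilution series starting at 10 uM final and incubated 16h at 37° C. After lysis for 1 hour, HTRF antibodies were added overnight at room temperature and the plate was read at 665/620 nm. Degradation was normalised to DMSO wells and fitted for DC50 and Dmax.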

The test system of experiment [4] is EGFR Del19/T790M/C797S (H1975-clone #28). Nature of the experiment: EGFR degradation HTRF assay, H1975-clone #28 DTC cells. Particulars: H1975 # 28 DTC cells; for DC50: EGFR degradation, IC50 (DC50) from curve fit, read-out: DC50(nM) H1975 # 28 DTC; for Dmax (%) H1975 # 28 DTC: maximum percentage of inhibition (degradation). The procedure, abridged: as §1
[5] abbreviates: maximum percentage of inhibition (degradation).

T1 sequence (P00533 25-1210 T790M/C797S/L858R): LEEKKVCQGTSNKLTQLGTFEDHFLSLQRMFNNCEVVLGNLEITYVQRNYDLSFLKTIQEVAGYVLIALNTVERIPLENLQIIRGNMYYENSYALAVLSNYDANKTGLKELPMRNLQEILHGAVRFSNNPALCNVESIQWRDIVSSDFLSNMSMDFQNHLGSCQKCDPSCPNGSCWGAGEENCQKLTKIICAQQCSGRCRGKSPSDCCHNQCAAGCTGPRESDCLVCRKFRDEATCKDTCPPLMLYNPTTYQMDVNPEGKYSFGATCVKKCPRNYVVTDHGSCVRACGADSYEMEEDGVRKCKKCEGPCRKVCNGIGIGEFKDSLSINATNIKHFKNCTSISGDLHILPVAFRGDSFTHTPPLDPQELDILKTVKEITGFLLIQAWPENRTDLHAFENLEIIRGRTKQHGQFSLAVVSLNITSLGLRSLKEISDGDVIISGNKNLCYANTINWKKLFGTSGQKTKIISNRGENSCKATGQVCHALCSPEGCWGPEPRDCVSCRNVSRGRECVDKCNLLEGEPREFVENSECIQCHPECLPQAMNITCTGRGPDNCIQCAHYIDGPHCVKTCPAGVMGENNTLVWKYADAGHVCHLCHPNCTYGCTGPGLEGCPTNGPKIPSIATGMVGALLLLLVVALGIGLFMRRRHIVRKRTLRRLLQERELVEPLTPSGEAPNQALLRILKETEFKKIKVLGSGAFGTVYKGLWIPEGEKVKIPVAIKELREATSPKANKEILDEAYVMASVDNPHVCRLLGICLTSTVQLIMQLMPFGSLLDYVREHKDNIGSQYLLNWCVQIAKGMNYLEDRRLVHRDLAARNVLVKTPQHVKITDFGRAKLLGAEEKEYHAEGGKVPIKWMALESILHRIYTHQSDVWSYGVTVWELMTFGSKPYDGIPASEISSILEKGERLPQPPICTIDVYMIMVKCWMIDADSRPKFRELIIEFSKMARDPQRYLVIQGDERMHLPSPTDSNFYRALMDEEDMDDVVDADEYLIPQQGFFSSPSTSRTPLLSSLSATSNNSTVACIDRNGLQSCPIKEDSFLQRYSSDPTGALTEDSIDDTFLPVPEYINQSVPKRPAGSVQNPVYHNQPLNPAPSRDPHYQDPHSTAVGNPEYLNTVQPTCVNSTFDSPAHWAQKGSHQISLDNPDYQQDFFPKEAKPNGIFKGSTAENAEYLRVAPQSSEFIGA
T2 sequence (P00533 25-1210 C797S/L858R): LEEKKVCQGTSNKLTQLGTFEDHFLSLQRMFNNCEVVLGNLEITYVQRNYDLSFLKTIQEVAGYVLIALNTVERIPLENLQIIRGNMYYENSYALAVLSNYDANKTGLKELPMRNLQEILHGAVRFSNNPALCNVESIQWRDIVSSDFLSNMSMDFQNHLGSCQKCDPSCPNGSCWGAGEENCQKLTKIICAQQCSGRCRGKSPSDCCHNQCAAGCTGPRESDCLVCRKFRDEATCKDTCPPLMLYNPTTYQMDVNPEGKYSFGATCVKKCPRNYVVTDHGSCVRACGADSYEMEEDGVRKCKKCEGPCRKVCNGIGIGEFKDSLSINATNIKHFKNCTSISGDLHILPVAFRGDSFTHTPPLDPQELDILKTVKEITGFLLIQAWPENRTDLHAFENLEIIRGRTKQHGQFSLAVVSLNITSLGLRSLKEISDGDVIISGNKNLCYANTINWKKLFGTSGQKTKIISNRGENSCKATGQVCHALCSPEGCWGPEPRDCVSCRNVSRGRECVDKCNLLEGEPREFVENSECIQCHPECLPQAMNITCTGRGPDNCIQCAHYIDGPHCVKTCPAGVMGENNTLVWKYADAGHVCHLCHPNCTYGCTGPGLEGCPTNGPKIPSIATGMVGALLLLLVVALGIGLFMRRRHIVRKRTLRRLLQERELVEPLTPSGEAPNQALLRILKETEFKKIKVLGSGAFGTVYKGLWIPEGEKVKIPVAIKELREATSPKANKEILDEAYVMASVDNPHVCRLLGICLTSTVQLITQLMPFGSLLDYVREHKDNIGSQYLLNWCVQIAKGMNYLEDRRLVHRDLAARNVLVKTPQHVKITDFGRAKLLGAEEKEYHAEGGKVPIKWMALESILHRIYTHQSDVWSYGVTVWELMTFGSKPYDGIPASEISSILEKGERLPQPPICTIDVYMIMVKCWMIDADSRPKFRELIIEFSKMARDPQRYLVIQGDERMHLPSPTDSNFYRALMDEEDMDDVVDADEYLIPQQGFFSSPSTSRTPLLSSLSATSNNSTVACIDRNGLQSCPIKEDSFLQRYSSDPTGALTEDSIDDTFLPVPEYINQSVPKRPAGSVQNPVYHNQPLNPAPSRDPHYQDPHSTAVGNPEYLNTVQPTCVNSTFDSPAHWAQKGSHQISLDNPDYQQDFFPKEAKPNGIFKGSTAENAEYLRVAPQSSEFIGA

Take `CCc1cc(Nc2ncc(Br)c(Nc3ccc4c(=O)n(C5CC5)ncc4c3P(C)(C)=O)n2)c(OC)cc1N1CCC(N2CCN(CCc3cc(F)c(C4CCC(=O)NC4=O)c(F)c3)CC2)CC1` (centres unmarked) [Example 521, 3-(4-(2-(4-(1-(4-((5-bromo-4-((2-cyclopropyl-5-(dimethylphosphoryl)-1-oxo-1,2-dihydrophthalazin-6-yl)amino)pyrimidin-2-yl)amino)-2-ethyl-5-methoxyphenyl)piperidin-4-yl)piperazin-1-yl)ethyl)-2,6-difluorophenyl)piperidine-2,6-dione]: the DC50 – broadly, the concentration at which degradation of the target reaches its halfway point – in experiment [1] is 17 nM; in experiment [2], 51.6 nM; in experiment [3], 5.9 nM; in experiment [4], 1.01 nM. Further, the Dmax – broadly, the largest share of the target that was removed – in experiment [1] (setting [5]) worked out at 87.4%; in experiment [2], 74.6%. For the same compound, in experiment [3], the “H1975 #23 DC Dmax (%)” value amounted to 75.56%. Moreover, the “Dmax (%) H1975 # 28 DTC” value in experiment [4] was 80.24%.

On to `CCc1cc(Nc2ncc(Br)c(Nc3ccc4c(=O)n(C5CC5)ncc4c3P(C)(C)=O)n2)c(OC)cc1N1CCC(N2CCN(C(=O)[C@@H]3CCN(c4cc(F)c([C@H]5CCC(=O)NC5=O)c(F)c4)C3)CC2)CC1` [Example 526, (R)-3-(4-((R)-3-(4-(1-(4-((5-bromo-4-((2-cyclopropyl-5-(dimethylphosphoryl)-1-oxo-1,2-dihydrophthalazin-6-yl)amino)pyrimidin-2-yl)amino)-2-ethyl-5-methoxyphenyl)piperidin-4-yl)piperazine-1-carbonyl)pyrrolidin-1-yl)-2,6-difluorophenyl)piperidine-2,6-dione], for which the DC50 in experiment [1] stood at 3.77 nM; in experiment [2], 40.3 nM; in experiment [3] it was 5.87 nM; in experiment [4], 0.574 nM. Further, the Dmax in experiment [1] (setting [5]) was found to be 96.3%; in experiment [2], 74.6%. For the same compound, in experiment [3], the “H1975 #23 DC Dmax (%)” value is 52.26%. Further, in experiment [4], the “Dmax (%) H1975 # 28 DTC” value came out at 83.99%.

Take `CCc1cc(Nc2ncc(Br)c(Nc3ccc4c(=O)n(C)ncc4c3P(C)(C)=O)n2)c(OC)cc1N1CCC(N2CCN(C(=O)[C@@H]3CCN(c4cc(F)c([C@H]5CCC(=O)NC5=O)c(F)c4)C3)CC2)CC1` [Example 528, (R)-3-(4-((R)-3-(4-(1-(4-((5-bromo-4-((5-(dimethylphosphoryl)-2-methyl-1-oxo-1,2-dihydrophthalazin-6-yl)amino)pyrimidin-2-yl)amino)-2-ethyl-5-methoxyphenyl)piperidin-1)piperazine-1-carbonyl)pyrrolidin-1-yl)2,6-difluorophenyl)piperidine-2,6-dione]: the DC50 is 3.63 nM in experiment [1], 14.9 nM in experiment [2], 1.58 nM in experiment [3] and 0.632 nM in experiment [4]. Further, the maximal degradation (Dmax) in experiment [1] (setting [5]) came out at 97.3%; in experiment [2] it was 83.9%. The “H1975 #23 DC Dmax (%)” value in experiment [3] is 54.87%. For the same compound, the “Dmax (%) H1975 # 28 DTC” value in experiment [4] was found to be 86.11%.

On to `CCOc1cc(N2CCC(N3CCN(C(=O)[C@@H]4CCN(c5cc(F)c([C@H]6CCC(=O)NC6=O)c(F)c5)C4)CC3)CC2)c(CC)cc1Nc1ncc(Br)c(Nc2ccc3nc(C)ccc3c2P(C)(C)=O)n1` [Example 531, (R)-3-(4-((R)-3-(4-(1-(4-((5-bromo-4-((5-(dimethylphosphoryl)-2-methylquinolin-6-yl)amino)pyrimidin-2-yl)amino)-5-ethoxy-2-ethylphenyl)piperidin-4-yl)piperazine-1-carbonyl)pyrrolidin-1-yl)-2,6-difluorophenyl)piperidine-2,6-dione], for which the DC50 in experiment [1] was 7.03 nM; in experiment [2] it was 51.8 nM; in experiment [3], 9.42 nM; in experiment [4], 1.55 nM. The values for the Dmax in experiment [1] (setting [5]) and in experiment [2] were 96.4% and 83.5%, respectively. Besides, the “H1975 #23 DC Dmax (%)” value in experiment [3] is 53.36%. For the same compound, the “Dmax (%) H1975 # 28 DTC” value in experiment [4] stood at 74.06%.

For `CCOc1cc(N2CCC(N3CCN(CCc4ccc5c(c4)oc(=O)n5C4CCC(=O)NC4=O)CC3)CC2)c(CC)cc1Nc1ncc(Br)c(Nc2ccc3nc(C)ccc3c2P(C)(C)=O)n1` (centres unmarked) [Example 532], the DC50 in experiment [1] amounted to 2.96 nM. Besides, in experiment [1] (setting [5]), the “Dmax (%) BaF3-LTC” value came out at 95.58%. Further, in experiment [2], the Dmax was 88.1% and the DC50 was determined as 3.84 nM. For the same compound, in experiment [3], the “H1975 #23 DC Dmax (%)” value is recorded as 52.49% and the half-maximal degradation concentration (DC50) was found to be 0.591 nM. Also, in experiment [4], the DC50 turned out to be 0.642 nM and the “Dmax (%) H1975 # 28 DTC” value amounted to 70.91%.

For the compound `CCc1ccc2c(P(C)(C)=O)c(Nc3nc(Nc4cc(CC)c(N5CCC(N6CCN(C(=O)[C@@H]7CCN(c8cc(F)c([C@H]9CCC(=O)NC9=O)c(F)c8)C7)CC6)CC5)cc4OC)ncc3Br)cc(F)c2n1` [Example 533, (R)-3-(4-((R)-3-(4-(1-(4-((5-bromo-4-((5-(dimethylphosphoryl)-2-ethyl-8-fluoroquinolin-6-yl)amino)pyrimidin-2-yl)amino)-2-ethyl-5-methoxyphenyl)piperidin-4-yl)piperazine-1-carbonyl)pyrrolidin-1-yl)-2,6-difluorophenyl)piperidine-2,6-dione], the DC50 in experiment [1] came to 5.05 nM; in experiment [2], 28.8 nM; in experiment [3] it was 7.47 nM; in experiment [4] it was 1.18 nM. Moreover, the figures for the Dmax in experiment [1] (setting [5]) and in experiment [2] were 97.2% and 90.8%, respectively. Also, the “H1975 #23 DC Dmax (%)” value in experiment [3] was found to be 73.47%. Also, the “Dmax (%) H1975 # 28 DTC” value in experiment [4] turned out to be 83.78%.

For `CCOc1cc(N2CCC(N3CCN(CCc4cc(F)c([C@H]5CCC(=O)NC5=O)c(F)c4)CC3)CC2)c(CC)cc1Nc1ncc(Br)c(Nc2cc(F)c3nc(C)ccc3c2P(C)(C)=O)n1` [Example 534, (R)-3-(4-(2-(4-(1-(4-((5-bromo-4-((5-(dimethylphosphoryl)-8-fluoro-2-methylquinolin-6-yl)amino)pyrimidin-2-yl)amino)-5-ethoxy-2-ethylphenyl)piperidin-4-yl)piperazin-1-yl)ethyl)-2,6-difluorophenyl)piperidine-2,6-dione], the DC50 in experiment [1] turned out to be 4.2 nM; in experiment [2], 10.2 nM; in experiment [3], 2.16 nM; in experiment [4], 0.749 nM. Moreover, the values for the maximal degradation (Dmax) in experiment [1] (setting [5]) and in experiment [2] were 93.7% and 90.2%, respectively. Further, the “H1975 #23 DC Dmax (%)” value in experiment [3] came out at 80.71%. In addition, the “Dmax (%) H1975 # 28 DTC” value in experiment [4] is recorded as 83.48%.

On to `CCc1ncc2c(P(C)(C)=O)c(Nc3nc(Nc4cc(CC)c(N5CCC(N6CCN(C(=O)[C@@H]7CCN(c8cc(F)c([C@H]9CCC(=O)NC9=O)c(F)c8)C7)CC6)CC5)cc4OC)ncc3Br)ccc2n1` [Example 549, (R)-3-(4-((R)-3-(4-(1-(4-((5-bromo-4-((5-(dimethylphosphoryl)-2-ethylquinazolin-6-yl)amino)pyrimidin-2-yl)amino)-2-ethyl-5-methoxyphenyl)piperidin-4-yl)piperazine-1-carbonyl)pyrrolidin-1-yl)-2,6-difluorophenyl)piperidine-2,6-dione], for which the DC50 in experiment [1] stood at 3.1 nM; in experiment [2] it was 1.59 nM; in experiment [3] it was 2.96 nM; in experiment [4] it was 0.601 nM. The “H1975 #23 DC Dmax (%)” value in experiment [3] came out at 63.66%. For the same compound, the “Dmax (%) H1975 # 28 DTC” value in experiment [4] is on record as 88.85%.
